From patent publication US12544365B2, “Pharmaceutical combination of an EP4 antagonist and immune checkpoint inhibitors for the treatment of tumours” (ROTTAPHARM BIOTECH S.R.L., priority 2019, dated 2026) come the findings set out here.

Data set [1] can be described thus: Stability of Form A at different humidity values and temperatures. Format: physicochemical. From the text: The stability of the Form A (named also as Compound 1) of the sodium salt of R)-4-(1-(6-(4-(trifluoromethyl)benzyl)-6-azaspiro[2.5]octane-5-carboxamido)cyclopropyl)benzoic acid at different humidity values and temperatures was investigated.
Data set [2] concerns PGE2 effect on TNF-α release in rat whole blood culture. The data set can be described thus: In vitro TNF-α release induced by LPS and modulated by PGE2, rat whole blood culture. Format: cell-based. The note with it: 0.1 μg/ml LPS + fixed PGE2 concentration giving about 80% inhibition, 4 hours, read-out: IC50, reversal of PGE2 effect on TNF-α release. Here is the method:
Male Wistar Han rats (250-300 g b.w., Charles River, Italy) were housed six per cage in a temperature-controlled room, set to maintain temperature within the range of 20° C. #2° C. and relative humidity within the range of 55%±10 and with a 12-h/12-h light/dark cycle. Throughout the study animals had free access to standard laboratory chow (Teklad rodent diet 2018, Harlan Laboratories, S. Pietro al Natisone, UD, Italy) and drinking water. Care and handling of the animals were in accordance with the guidelines of the Local Government and the regulations of the European Community. Authorization for experimental procedures was granted by the Italian Ministry of Health. The day of the experiments animals were anaesthetized with 2.5-3% isoflurane in O2 inside an induction chamber and blood was drawn from the abdominal aorta. Whole blood samples were collected in tubes containing 0.1-0.2U/ml heparin. […]
In samples representing basal release of the cytokine, LPS was substituted by the same volume of sterile PBS. […] The levels of TNF-α release in rat whole blood culture were evaluated using the Rat TNFalpha ELISA kit (Diaclone, France). Compared to the reference standard curve, TNF-α levels in samples were expressed as concentration (pg/ml).

Take `O=C([O-])c1ccc(C2(NC(=O)[C@H]3CC4(CCN3Cc3ccc(C(F)(F)F)cc3)CC4)CC2)cc1.[Na+]` [Compound 1, sodium (R)-4-(1-(6-(4-(trifluoromethyl)benzyl)-6-azaspiro[2.5]octane-5-carboxamido)cyclopropyl)benzoate]: the Stability entry in data set [1] (Powder, 50% RH −30° C.) is “Stable >24 hours”; in data set [1] (Powder, 80° C.), “Stable >5 days”; in data set [1] (Powder, RT) it was “Stable >1 month”; in data set [1] (Sealed foil/Poly bag, 70% RH −40° C.), “Stable >3 months”. Further, the IC50 in data set [2] was 2300 nM.
